Source: patent publication US20180207078A1, “COMBINATION OF NATURAL SUBSTANCES COMPRISING AT LEAST ONE […] ACID AND AT LEAST ONE GUGGULSTERONE, AND USE THEREOF FOR COSMETIC APPLICATIONS” (OntoChem, GmbH, priority 2015, published 2018)

Legend:
[1] = system: 3T3-L1 mouse fibroblasts; assay: Nile red assay of cellular lipid content during adipogenesis; assay type: cell-based; conditions: for Lipid content: treatment D0-D2, read on D6, stimulated untreated cells = 100%, unstimulated = 0%; for IC50: Mus musculus, 3T3-L1, 144 h, treatment for the entire 6-day adipocyte differentiation (D0-D6), read-out: IC50 value for the inhibition of cellular lipid accumulation
Description: The 3T3-L1 mouse fibroblasts were cultivated in Dulbecco's modified Eagle's medium (DMEM) incl. 10% foetal calf serum (FCS) and 2 mM L-glutamine at 37° C., 95% humidity and 5% CO2.
Adipocyte differentiation and maturation was induced as described (Yang J. Y. et al., Obesity 2008, 16, 16-22; Shugart E. C. and Umek R. M., Cell Growth & Differentiation 1997, 8, 1091-1098). The cells were stimulated not only with dexamethasone, as is generally conventional, but also with cortisol, which is more physiological.
The cells were seeded into 96-well plates and cultivated to confluence. Two days after reaching cell confluence (D0=day 0), cell differentiation was induced by adding DMEM with 10% FCS, 167 nM insulin, […] and 1 μM dexamethasone or 200 nM cortisol for two days (D2). The cells were then cultivated for a further two days in DMEM with 10% FCS and 167 nM insulin (D4), followed by cultivation in DMEM/10% FCS for a further four days (D8). Ultimately, >20-30% of the cells were mature adipocytes with accumulated lipid stores.
As an indicator for the degree of adipogenesis, the lipid content of the cells (intracellular lipid droplets) was detected by means of the lipophilic colour reagent Nile red, as described (Yang J. Y. et al., Obesity 2008, 16, 16-22; Greenspan P., The Journal of Cell Biology 1985, 100, 965-973). 3T3-L1 cells (5,000-10,000 cells/well), after reaching confluence, were cultivated for a further two days in 96-well plates (D0). The cells were then treated with guggulsterone and/or glycyrrhetinic acid, individually or in combination, for days D0-D2, D2-D4, D4-D6 and D0-D6 of the adipogenesis (concentration range: 1-200 μM). The medium, with or without test substance(s), was changed or renewed every two days. Cells treated as follows served as controls: (1) pure cell culture medium (undifferentiated control), (2) pure differentiation medium (untreated control), and (3) DMSO, corresponding to the highest DMSO concentration in the test batches, in differentiation medium (DMSO control).
On day 6 (D6), the intracellular lipid accumulation (lipid droplets) was quantified by means of a Nile red assay. To that end, the cell medium was discarded and the cells were washed with 100 μl/well of PBS (pH 7.4). The cells were then incubated for 20 minutes at room temperature with 50 μl/well of Nile red in PBS (10 μg/ml). The lipid content was determined fluorometrically using a Synergy 2 plate reader (BioTek, Winooski, USA) (excitation: 485 nm, emission: 560 nm, mirror: 550 nm). Nile red selectively stains neutral lipids, for example triacylglycerides in intracellular droplets.
The lipid content, that is to say the storage of triacylglycerides in intracellular lipid droplets, is an indicator for the degree of adipogenesis. […] Since the staining reagent Nile red, upon excitation at 485 nm and fluorescence detection at 560 nm, is very selective for neutral lipids, it was thus possible specifically to measure the intracellular accumulation of triacylglycerides during advancing adipogenesis.
On day 6 of the adipogenesis (D6), the accumulation of intracellular lipid droplets was measured fluorometrically by means of a Nile red assay (excitation: 485 nm; emission: 560 nm; 550 nm mirror). The data were normalised and the lipid accumulation is given in percent; unstimulated cells were used as 0% reference, and stimulated but untreated cells were used as 100% reference.

[2] = Resazurin-based cell viability assay; set-up: species or system mouse; conditions: mouse, mature 3T3-L1 adipocytes; 250 μM (of each compound), 24-hour treatment, 1 μM dexamethasone stimulation; read-out: reduction of cell viability (number of mature adipocytes)
Description: (§1) The cell viability of mature adipocytes after treatment with a test compound was measured by means of a fluorimetric Resazurin-based assay. Vital, that is to say metabolically active, cells are capable of converting Resazurin into the fluorescent derivative Resorufin (Strotmann U. J. et al., Ecotox. Environ. Safety 1993, 25, 79-89). 3T3-L1 cells were seeded into 96-well plates (5,000-10,000 cells/well) and, as described above, cultivated to maturity (D8). […] Cells treated as follows served as controls: (1) pure cell culture medium (undifferentiated control), (2) pure differentiation medium (untreated control), (3) DMSO, corresponding to the highest DMSO concentration in the test batches, in differentiation medium (DMSO control), and (4) 150 μg/ml digitonin in DMEM (cell death control). After 24 hours, the incubation medium was discarded and the cells were washed with 100 μl/well of DMEM and then incubated for 2 hours under standard culture conditions with 50 μl/well of Resazurin solution (60 μM in DMEM). Finally, the Resorufin fluorescence was detected by means of a Synergy 2 plate reader (BioTek, Winooski, USA) (excitation: 540 nm, emission: 590 nm, mirror: 550 nm). […] Finally, the cell viability, as a measure of the number and fitness of the cells, was measured by means of a Resazurin assay.

[3] = system: caspases 3/7; assay: Caspase-Glo 3/7 apoptosis assay in mature adipocytes; assay type: cell-based, mouse; conditions: 24 hours
Description: In order to evaluate a possible induction of apoptosis in mature adipocytes as a result of the treatment with (Z)-guggulsterone and/or glycyrrhetinic acid, a Caspase-Glo® 3/7 assay kit (Promega, Mannheim, Germany) was used.
3T3-L1 cells were seeded into 96-well plates (5,000-10,000 cells/well) and, as described above, cultivated to maturity (D8). On D8, the mature adipocytes were incubated for 24 hours under standard culture conditions with guggulsterone and/or glycyrrhetinic acid (1-250 μM). Cells treated as follows served as controls: (1) pure cell culture medium (undifferentiated control), (2) pure differentiation medium (untreated control), and (3) DMSO, corresponding to the highest DMSO concentration in the test batches, in differentiation medium (DMSO control). After 24 hours, the incubation medium was discarded, the cells were washed with 100 μl/well of DMEM, and then 150 μl/well of Caspase-Glo® 3/7 reagent in DMEM (1:1, v/v) were added. After incubation for 2 hours at room temperature, the luminescence signal of the reagent was detected by means of a Synergy 2 plate reader (BioTek, Winooski, USA).
The combination of 250 μM of each of the two compounds brought about an increase in caspase 3/7 activity by a factor of 3.5-4.0 as compared with untreated cells (FIG. 2).

[4] = system: 3T3 pre-adipocytes; assay: Fluorescence microscopy of lipid droplets (Nile red/DAPI); assay type: cell-based, mouse; conditions: 100 μM, D0-D6, stimulation with 1 μM dexamethasone
Description: […] The incubation medium was then discarded and the cells were washed with PBS and stained with Nile red (10 μg/ml) and DAPI (1 μg/ml) in 50 μl/well of PBS for 20 minutes at room temperature. After removal of the staining solution, the cells were washed with PBS and fixed with 4% paraformaldehyde in PBS for 30 minutes at room temperature. Finally, the cells were washed three times with PBS and mounted on the object slide by means of Fluorescence Mounting Medium (Dako, Carpinteria, USA). The fluorescence microscopy images were taken by using a Zeiss Axio Observer.Z1 with ApoTome (Carl Zeiss Microlmaging, Jena, Germany) using the DAPI and GFP filter settings.

[5] = system: mature 3T3 adipocytes; assay: Resazurin-based cell viability assay; set-up: species or system mouse; conditions: up to 250 μM, 24-hour treatment, 1 μM dexamethasone stimulation
Description: as §1

[6] = cited from earlier work

Molecule	Lipid content ([1]; 10 μM) [%]	Lipid content ([1]; 40 μM) [%]	Lipid content ([1]; 100 μM) [%]	IC50 [1] [µM]	cytotoxicity at 24 h, 250 μM [2] [%]	increase in caspase 3/7 activity as compared with untreated cells ([3]; 250 μM (of each compound))	lipid droplets versus stimulated untreated cells [4]	effect on cell viability [5]	induction of caspases 3/7 ([3]; dexamethasone or cortisol stimulation)	systemic administration that is not safe [6]
CC1(C)[C@@H](O)CC[C@]2(C)[C@H]3C(=O)C=C4[C@@H]5C[C@@](C)(C(=O)O)CC[C@]5(C)CC[C@@]4(C)[C@]3(C)CC[C@@H]12 [18β-glycyrrhetinic acid]	98	91	7	~20	28	2.5-3.0 factor	significantly fewer and smaller lipid droplets			
C/C=C1\C(=O)C[C@H]2[C@@H]3CCC4=CC(=O)CC[C@]4(C)[C@H]3CC[C@]12C [(Z)-guggulsterone]	71	26	5	~5			significantly fewer and smaller lipid droplets	did not impair the cell viability	no induction of caspases 3/7	
guggulsterone										more than 30 mg/day
